According to ChEMBL document CHEMBL2074547, “Efflux of sphingoid bases by P-glycoprotein in human intestinal Caco-2 cells” (Biosci Biotechnol Biochem, 2004):

Target: ATP-dependent translocase ABCB1 (Homo sapiens, UniProt P08183)
Test: TP_TRANSPORTER: cell accumulation (digoxin-sensitive) in Caco-2 cells
Type: functional, cell-based

Chain of ATP-dependent translocase ABCB1 (P08183 whole entry): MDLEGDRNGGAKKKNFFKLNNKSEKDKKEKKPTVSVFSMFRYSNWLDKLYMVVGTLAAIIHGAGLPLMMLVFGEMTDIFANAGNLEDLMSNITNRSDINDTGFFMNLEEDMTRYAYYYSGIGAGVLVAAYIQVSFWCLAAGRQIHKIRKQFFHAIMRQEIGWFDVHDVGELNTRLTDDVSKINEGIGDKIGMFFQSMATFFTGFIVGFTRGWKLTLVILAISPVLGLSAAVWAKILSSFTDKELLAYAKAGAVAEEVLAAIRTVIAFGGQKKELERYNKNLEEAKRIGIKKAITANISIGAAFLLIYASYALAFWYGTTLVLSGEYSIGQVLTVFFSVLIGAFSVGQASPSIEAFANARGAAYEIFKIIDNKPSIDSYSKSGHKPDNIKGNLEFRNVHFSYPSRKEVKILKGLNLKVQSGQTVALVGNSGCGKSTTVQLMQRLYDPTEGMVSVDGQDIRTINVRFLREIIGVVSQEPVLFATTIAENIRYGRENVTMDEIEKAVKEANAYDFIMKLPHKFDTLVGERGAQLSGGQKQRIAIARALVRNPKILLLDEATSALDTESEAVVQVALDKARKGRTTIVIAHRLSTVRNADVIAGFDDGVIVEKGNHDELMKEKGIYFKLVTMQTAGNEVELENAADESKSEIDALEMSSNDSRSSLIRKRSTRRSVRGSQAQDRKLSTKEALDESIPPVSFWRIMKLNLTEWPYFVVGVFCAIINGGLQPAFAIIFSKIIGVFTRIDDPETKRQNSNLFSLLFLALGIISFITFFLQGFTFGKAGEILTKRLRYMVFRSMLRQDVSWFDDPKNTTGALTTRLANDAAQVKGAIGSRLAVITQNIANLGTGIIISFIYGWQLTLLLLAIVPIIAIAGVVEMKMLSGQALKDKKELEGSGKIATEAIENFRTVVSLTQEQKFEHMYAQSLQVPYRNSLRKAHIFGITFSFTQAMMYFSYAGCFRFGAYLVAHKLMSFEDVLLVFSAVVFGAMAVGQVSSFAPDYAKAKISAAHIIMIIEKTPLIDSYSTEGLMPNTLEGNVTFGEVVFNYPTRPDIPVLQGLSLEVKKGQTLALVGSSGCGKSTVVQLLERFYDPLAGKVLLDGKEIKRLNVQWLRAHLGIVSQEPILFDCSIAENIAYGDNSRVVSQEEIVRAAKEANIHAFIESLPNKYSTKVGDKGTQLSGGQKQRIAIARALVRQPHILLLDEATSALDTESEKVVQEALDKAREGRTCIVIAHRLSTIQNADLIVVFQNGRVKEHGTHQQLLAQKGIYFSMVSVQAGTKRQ

Compound	Activity
CCCCCCCCC/C=C/CCCCC(O)C(N)CO (configuration not stated)	substrate [+]
CCCCCCCCCCCCC/C=C/[C@@H](O)[C@@H](N)CO [SPHINGOSINE]	is not a substrate [-]
CCCCCCCCCCCCCCC[C@@H](O)[C@@H](N)CO [DIHYDROSPINGOSINE]	substrate [+]
CCCCCCCCC/C=C\CCCCC(O)C(N)CO (configuration not stated)	substrate [+]

Results, then the compound that gave them:

Activity	Compound
substrate [+]	CCCCCCCCC/C=C\CC/C=C/C(O)C(N)CO (configuration not stated)
substrate [+]	CCCCCCCCC/C(C)=C/CC/C=C/C(O)C(N)CO (configuration not stated)
substrate [+]	CCCCCCCCC/C=C/CC/C=C/C(O)C(N)CO (configuration not stated)
